From ChEMBL document CHEMBL1130805, “The synthesis and evaluation of benzannelated-azatoxins: the benzazatoxins” (Bioorg Med Chem Lett, 1998)
The source made the active and inactive calls. The calls are words filed in the database; no cut-off is given here.

Key:
MCF7 = assay: Compound was evaluated for growth inhibition against MCF-7 cells using cellular assay; type: functional; details: Homo sapiens
NCI-H520 = assay: Compound was evaluated for growth inhibition against NCI-H520 cells using cellular assay; type: functional; details: Homo sapiens
PC-3 = assay: Compound was evaluated for growth inhibition against PC-3 cells using cellular assay; type: functional; details: Homo sapiens
Bos taurus = organism: Bos taurus; assay: Compound was evaluated for inhibition of tubulin polymerization in bovine brain tubulin; type: functional
[1] = target: T1, DNA topoisomerase II (Homo sapiens) (UniProt P11388+Q02880); assay: Compound was evaluated for its ability to affect topoisomerase II inhibition; active; type: protein assay
[2] = target: T1, DNA topoisomerase II (Homo sapiens); assay: Compound was evaluated for its ability to affect topoisomerase II inhibition; inactive; type: protein assay

Row | Structure (SMILES) | GI50 (MCF7) [µM] | GI50 (NCI-H520) [µM] | GI50 (PC-3) [µM] | IC50 (Bos taurus) [µM] | Activity [1] | Activity [2]
1 | COc1cc([C@@H]2c3[nH]c4ccccc4c3C[C@H]3COC(=O)N32)cc(OC)c1O | 0.25 | 0.12 | 0.2 | 20.3 | Active | 
2 | COc1cc2c(c(OC)c1OC)-c1ccc(OC)c(=O)cc1[C@@H](NC(C)=O)CC2 [COLCHICINE] | < 0.05 | < 0.05 | < 0.05 | 11.8 |  | inactive
3 | COc1cc([C@@H]2c3[nH]c4c(ccc5ccccc54)c3C[C@H]3COC(=O)N32)cc(OC)c1O | > 50 | > 50 | > 50 | 51 |  | inactive
4 | COc1cc([C@@H]2c3[nH]c4ccc5ccccc5c4c3C[C@H]3COC(=O)N32)cc(OC)c1O | 2 | 0.8 | 2 | 5.6 |  | inactive
5 | COc1cc([C@@H]2c3[nH]c4cc5ccccc5cc4c3C[C@H]3COC(=O)N32)cc(OC)c1O | 5 | 4 | 10 | 6.7 |  | inactive
